Earlier results in patent US20210244941A1, “METHODS AND APPARATUS FOR A WEARABLE ELECTRONIC DIGITAL THERAPEUTIC DEVICE” (KINAPTIC, LLC, priority 2018, published 2021).
Read-outs that look alike come from different tables or passages of the source.

Tests used:
[1] = rats, oral dosing
[2] = dogs, oral dosing
[3] = not given; remark: listed apart in the source
[4] = single- (up to 80 mg) and multiple-dose studies, healthy subjects and patients

Row | physical sensation or discomfort (sweat glands; iontophoresis, electrical current at 0.2 milliamps into upper layer of skin) | absolute bioavailability [1] | absolute bioavailability [2] | increase in area under the concentration-time curve (AUC) (animal models) | absorption after oral dosing (animal models, oral dosing) | excretion (rats and dogs, renal and faecal/biliary routes) | absorption ([3]; single doses, humans) | oral bioavailability ([3]; single doses, humans) | accumulation [3, 4] | pharmacokinetics versus dose [3, 4] | SMILES | sweat induction (sweat glands; gel containing carbachol on sensors, sedentary patient) | safety and tolerability ([3]; single doses, humans)
1 | no physical sensation or discomfort | – | – | – | – | – | – | – | – | – | C[N+](C)(C)CCOC(N)=O [carbachol] | effective to induce sweat | –
2 | – | 57-66% | 60-86% | dose proportional increase | absorbed rapidly | rapidly excreted | rapid absorption | high | no evidence of accumulation | dose-proportional | O=C(NC[C@H]1CN(c2ccc(N3CCOCC3=O)cc2)C(=O)O1)c1ccc(Cl)s1 [rivaroxaban] | – | safe and well tolerated
